# Test results: ChEMBL document CHEMBL1201861, “Genomics of Drug Sensitity in Cancer screening data, Wellcome Trust Sanger Institute”
# Experiments:
# Assay in all cases: cells
# ES3 = assay type: functional, cell-based, Homo sapiens; details: Homo sapiens, ES3;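 note: growth inhibition of ES3 cells, read out with a cell viability assay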
# Description: SANGER: Inhibition of human ES3 cell growth in a cell viability assay.
# EW-13 = assay type: functional, cell-based; details: Homo sapiens;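 note: growth inhibition of EW-13 cells, read out with a cell viability assay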
# Description: SANGER: Inhibition of human EW-13 cell growth in a cell viability assay.
# GB-1 = assay type: functional, cell-based, Homo sapiens; details: Homo sapiens, GB-1;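 note: growth of GB-1 cells judged by a viability assay, IC50 marks the concentration inhibiting growth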
# Description: SANGER: Inhibition of human GB-1 cell growth in a cell viability assay.
# GCIY = assay type: functional, cell-based, Homo sapiens; details: Homo sapiens, GCIY;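 note: growth inhibition of the human GCIY cell line, read out by a cell viability assay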
# Description: SANGER: Inhibition of human GCIY cell growth in a cell viability assay.
# GOTO = assay type: functional, cell-based, Homo sapiens; details: Homo sapiens, GOTO;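 note: growth inhibition of GOTO cells, read out by a cell viability assay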
# Description: SANGER: Inhibition of human GOTO cell growth in a cell viability assay.
# GR-ST = assay type: functional, cell-based; details: Homo sapiens
# Description: SANGER: Inhibition of human GR-ST cell growth in a cell viability assay.
# GT3TKB = assay type: functional, cell-based, Homo sapiens; details: Homo sapiens, GT3TKB;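 note: growth inhibition of the cell line, read out with a cell viability assay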
# Description: SANGER: Inhibition of human GT3TKB cell growth in a cell viability assay.
# HCC1395 = assay type: functional, cell-based, Homo sapiens; details: Homo sapiens, HCC1395;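 note: growth inhibition of HCC1395 cells, read out by a cell viability assay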
# Description: SANGER: Inhibition of human HCC1395 cell growth in a cell viability assay.
# HCC1419 = assay type: functional, cell-based, Homo sapiens; details: Homo sapiens, HCC1419;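 note: growth inhibition of human HCC1419 cells, read out as cell viability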
# Description: SANGER: Inhibition of human HCC1419 cell growth in a cell viability assay.
# HCC1937 = assay type: functional, cell-based, Homo sapiens; details: Homo sapiens, HCC1937;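 note: growth inhibition measured with a cell viability read-out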
# Description: SANGER: Inhibition of human HCC1937 cell growth in a cell viability assay.
# HPAF-II = assay type: functional, cell-based, Homo sapiens; details: Homo sapiens, HPAF-II;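 note: growth inhibition of HPAF-II cells, read out with a cell viability assay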
# Description: SANGER: Inhibition of human HPAF-II cell growth in a cell viability assay.
# HuCCT-1 = assay type: functional, cell-based, Homo sapiens, HuCCT1; details: Homo sapiens, HuCCT-1;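 note: growth inhibition of HuCCT-1 cells, read out by a cell viability assay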
# Description: SANGER: Inhibition of human HuCCT1 cell growth in a cell viability assay.
# HuP-T4 = assay type: functional, cell-based, Homo sapiens; details: Homo sapiens, HuP-T4;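 note: cell viability assay measuring how much HuP-T4 cell growth is inhibited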
# Description: SANGER: Inhibition of human HuP-T4 cell growth in a cell viability assay.
# KP-N-YS = assay type: functional, cell-based; details: Homo sapiens;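 note: cell viability assay measuring inhibition of cell line growth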
# Description: SANGER: Inhibition of human KP-N-YS cell growth in a cell viability assay.
# KYSE-140 = assay type: functional, cell-based, Homo sapiens; details: Homo sapiens, KYSE-140;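 note: cell viability assay measuring growth inhibition in human KYSE-140 cells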
# Description: SANGER: Inhibition of human KYSE-140 cell growth in a cell viability assay.
# KYSE-270 = assay type: functional, cell-based, Homo sapiens; details: Homo sapiens, KYSE-270;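 note: cell growth inhibition measured with a viability assay in the human KYSE-270 line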
# Description: SANGER: Inhibition of human KYSE-270 cell growth in a cell viability assay.
# MDA-MB-231 = assay type: functional, cell-based, Homo sapiens; details: Homo sapiens, MDA-MB-231
# Description: SANGER: Inhibition of human MDA-MB-231 cell growth in a cell viability assay.
# MHH-NB-11 = assay type: functional, cell-based, Homo sapiens; details: Homo sapiens, MHH-NB-11;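 note: growth inhibition of human MHH-NB-11 cells, read out by a cell viability assay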
# Description: SANGER: Inhibition of human MHH-NB-11 cell growth in a cell viability assay.
# MKN-1 = assay type: functional, cell-based, Homo sapiens; details: Homo sapiens, MKN-1;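 note: growth inhibition of human MKN1 cells, read out by a cell viability measurement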
# Description: SANGER: Inhibition of human MKN1 cell growth in a cell viability assay.
# MMAC-SF = assay type: functional, cell-based, Homo sapiens; details: Homo sapiens, MMAC-SF;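 note: growth inhibition of human MMAC-SF cells, read out with a cell viability assay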
# Description: SANGER: Inhibition of human MMAC-SF cell growth in a cell viability assay.
# MS-1 = assay type: functional, cell-based; details: Homo sapiens;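 note: growth inhibition of MS-1 cells, read out by cell viability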
# Description: SANGER: Inhibition of human MS-1 cell growth in a cell viability assay.
# NCI-H1092 = assay type: functional, cell-based; details: Homo sapiens;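 note: cell growth inhibition measured with a cell viability assay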
# Description: SANGER: Inhibition of human NCI-H1092 cell growth in a cell viability assay.
# NCI-H1299 = assay type: functional, cell-based, Homo sapiens; details: Homo sapiens, NCI-H1299;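 note: growth inhibition of human NCI-H1299 cells, read out by a cell viability assay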
# Description: SANGER: Inhibition of human NCI-H1299 cell growth in a cell viability assay.
# NCI-H2452 = assay type: functional, cell-based, Homo sapiens; details: Homo sapiens, NCI-H2452;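 note: growth inhibition of NCI-H2452 cells, read out with a cell viability assay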
# Description: SANGER: Inhibition of human NCI-H2452 cell growth in a cell viability assay.
# NCI-H661 = assay type: functional, cell-based, Homo sapiens; details: Homo sapiens, NCI-H661;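 note: cell viability assay read-out, IC50 being the concentration that inhibits growth of the cells by half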
# Description: SANGER: Inhibition of human NCI-H661 cell growth in a cell viability assay.
# NCI-N87 = assay type: functional, cell-based, Homo sapiens; details: Homo sapiens, NCI-N87;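 note: growth inhibition of human NCI-N87 cells, read out with a cell viability assay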
# Description: SANGER: Inhibition of human NCI-N87 cell growth in a cell viability assay.
# OAW-28 = assay type: functional, cell-based, Homo sapiens; details: Homo sapiens, OAW-28;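 note: growth inhibition of OAW-28 cells, read out with a cell viability assay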
# Description: SANGER: Inhibition of human OAW-28 cell growth in a cell viability assay.
# OVCAR-5 = assay type: functional, cell-based, Homo sapiens; details: Homo sapiens, OVCAR-5;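 note: growth inhibition of human OVCAR-5 cells, read out with a cell viability assay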
# Description: SANGER: Inhibition of human OVCAR-5 cell growth in a cell viability assay.
# P12-Ichikawa = assay type: functional, cell-based; details: Homo sapiens
# PFSK-1 = assay type: functional, cell-based, Homo sapiens; details: Homo sapiens, PFSK-1;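 note: cell viability assay measuring how strongly compounds suppress growth of human PFSK-1 cells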
# Description: SANGER: Inhibition of human PFSK-1 cell growth in a cell viability assay.
# RO82-W-1 = assay type: functional, cell-based, Homo sapiens; details: Homo sapiens, RO82-W-1;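 note: growth inhibition of human RO82-W-1 cells, measured with a cell viability assay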
# Description: SANGER: Inhibition of human RO82-W-1 cell growth in a cell viability assay.
# RS4-11 = assay type: functional, cell-based; details: Homo sapiens;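 note: growth inhibition of RS4-11 cells, read out by a cell viability assay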
# Description: SANGER: Inhibition of human RS4-11 cell growth in a cell viability assay.
# SBC-1 = assay type: functional, cell-based; details: Homo sapiens;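 note: cell viability assay measuring growth inhibition of the SBC-1 cell line, IC50 being the concentration that halves growth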
# Description: SANGER: Inhibition of human SBC-1 cell growth in a cell viability assay.
# SBC-5 = assay type: functional, cell-based, Homo sapiens; details: Homo sapiens, SBC-5;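 note: cell viability assay read-out, IC50 is the concentration that inhibits growth of the cells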
# Description: SANGER: Inhibition of human SBC-5 cell growth in a cell viability assay.
# SCC-15 = assay type: functional, cell-based, Homo sapiens; details: Homo sapiens, SCC-15;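 note: growth inhibition of SCC-15 cells, read out with a cell viability assay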
# Description: SANGER: Inhibition of human SCC-15 cell growth in a cell viability assay.
# SCC-4 = assay type: functional, cell-based, Homo sapiens; details: Homo sapiens, SCC-4;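 note: growth inhibition of human SCC-4 cells, read out as cell viability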
# Description: SANGER: Inhibition of human SCC-4 cell growth in a cell viability assay.
# SK-N-DZ = assay type: functional, cell-based, Homo sapiens; details: Homo sapiens, SK-N-DZ;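 note: growth inhibition of the cancer cell line, read out through a viability assay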
# Description: SANGER: Inhibition of human SK-N-DZ cell growth in a cell viability assay.
# SKG-IIIa = assay type: functional, cell-based, Homo sapiens; details: Homo sapiens, SKG-IIIa;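 note: cell growth inhibition, read out with a cell viability assay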
# Description: SANGER: Inhibition of human SKG-IIIa cell growth in a cell viability assay.
# SW982 = assay type: functional, cell-based; details: Homo sapiens;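 note: growth inhibition of SW982 cells, read out with a cell viability assay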
# Description: SANGER: Inhibition of human SW982 cell growth in a cell viability assay.
# T84 = assay type: functional, cell-based, Homo sapiens; details: Homo sapiens, T84;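 note: growth inhibition measured with a cell viability readout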
# Description: SANGER: Inhibition of human T84 cell growth in a cell viability assay.
# 697 = assay type: functional, cell-based; details: Homo sapiens
# Description: SANGER: Inhibition of human 697 cell growth in a cell viability assay.
# 769-P = assay type: functional, cell-based, Homo sapiens; details: Homo sapiens, 769-P
# Description: SANGER: Inhibition of human 769-P cell growth in a cell viability assay.
# A2058 = assay type: functional, cell-based; details: Homo sapiens;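 note: reduction of A2058 cell growth, read out with a viability assay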
# Description: SANGER: Inhibition of human A2058 cell growth in a cell viability assay.
# CAL-120 = assay type: functional, cell-based, Homo sapiens; details: Homo sapiens, CAL-120;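 note: cell growth inhibition, read out as cell viability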
# Description: SANGER: Inhibition of human CAL-120 cell growth in a cell viability assay.
# CAL-39 = assay type: functional, cell-based, Homo sapiens; details: Homo sapiens, CAL-39;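 note: cell viability assay measuring growth inhibition of CAL-39 cells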
# Description: SANGER: Inhibition of human CAL-39 cell growth in a cell viability assay.
# TE-6 = assay type: functional, cell-based, Homo sapiens; details: Homo sapiens, TE-6;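 note: growth inhibition of TE-6 cells, read out with a cell viability assay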
# Description: SANGER: Inhibition of human TE-6 cell growth in a cell viability assay.
# TE-8 = assay type: functional, cell-based, Homo sapiens; details: Homo sapiens, TE-8;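 note: growth inhibition of TE-8 cells, measured with a cell viability readout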
# Description: SANGER: Inhibition of human TE-8 cell growth in a cell viability assay.
# U-266 = assay type: functional, cell-based; details: Homo sapiens
# Description: SANGER: Inhibition of human U-266 cell growth in a cell viability assay.
# CAS-1 = assay type: functional, cell-based, Homo sapiens; details: Homo sapiens, CAS-1;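 note: growth inhibition of CAS-1 cells, measured with a cell viability assay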
# Description: SANGER: Inhibition of human CAS-1 cell growth in a cell viability assay.
# CHL-1 = assay type: functional, cell-based, Homo sapiens; details: Homo sapiens, CHL-1;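 note: cell growth inhibition, read out with a cell viability assay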
# Description: SANGER: Inhibition of human CHL-1 cell growth in a cell viability assay.
# COLO-680N = assay type: functional, cell-based, Homo sapiens; details: Homo sapiens, COLO-680N;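 note: cell viability assay used to measure inhibition of COLO-680N cell growth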
# Description: SANGER: Inhibition of human COLO-680N cell growth in a cell viability assay.
smiles,measurement,setting,value
O=C1N=C(NCc2cccs2)S/C1=C\c1ccc2ncccc2c1,IC50,ES3,> 5 µM
same,IC50,EW-13,> 5 µM
same,IC50,GB-1,> 5 µM
same,IC50,GCIY,> 5 µM
same,IC50,GOTO,> 5 µM
same,IC50,GR-ST,> 5 µM
same,IC50,GT3TKB,> 5 µM
same,IC50,HCC1395,> 5 µM
same,IC50,HCC1419,> 5 µM
same,IC50,HCC1937,> 5 µM
same,IC50,HPAF-II,> 5 µM
same,IC50,HuCCT-1,> 5 µM
same,IC50,HuP-T4,> 5 µM
same,IC50,KP-N-YS,> 5 µM
same,IC50,KYSE-140,> 5 µM
same,IC50,KYSE-270,> 5 µM
same,IC50,MDA-MB-231,> 5 µM
same,IC50,MHH-NB-11,> 5 µM
same,IC50,MKN-1,> 5 µM
same,IC50,MMAC-SF,> 5 µM
same,IC50,MS-1,> 5 µM
same,IC50,NCI-H1092,> 5 µM
same,IC50,NCI-H1299,> 5 µM
same,IC50,NCI-H2452,> 5 µM
same,IC50,NCI-H661,> 5 µM
same,IC50,NCI-N87,> 5 µM
same,IC50,OAW-28,> 5 µM
same,IC50,OVCAR-5,> 5 µM
same,IC50,P12-Ichikawa,> 5 µM
same,IC50,PFSK-1,> 5 µM
same,IC50,RO82-W-1,> 5 µM
same,IC50,RS4-11,> 5 µM
same,IC50,SBC-1,> 5 µM
same,IC50,SBC-5,> 5 µM
same,IC50,SCC-15,> 5 µM
same,IC50,SCC-4,> 5 µM
same,IC50,SK-N-DZ,2020 nM
same,IC50,SKG-IIIa,> 5 µM
same,IC50,SW982,> 5 µM
same,IC50,T84,> 5 µM
same,IC50,697,> 5 µM
same,IC50,769-P,> 5 µM
same,IC50,A2058,> 5 µM
same,IC50,CAL-120,> 5 µM
same,IC50,CAL-39,> 5 µM
same,IC50,TE-6,> 5 µM
same,IC50,TE-8,> 5 µM
same,IC50,U-266,> 5 µM
same,IC50,CAS-1,> 5 µM
same,IC50,CHL-1,> 5 µM
same,IC50,COLO-680N,> 5 µM
